The values below come from patent US20190284293A1, “COMBINATION THERAPY WITH ANTI-CD73 ANTIBODIES” (BRISTOL-MYERS SQUIBB COMPANY, priority 2016, published 2019).

One assay addresses all other FcγRs. Briefly: SPR binding of constructs to human FcγRs. Conditions: read-out: binding affinity to all other FcγRs. As to the method: Binding of the constructs to human FcγRs was measured via SPR. hCD64 and hCD32a-H131 binding data for IgG1.1 and IgG2 molecules were consistent with expected values for the different Fcs. IgG1.1f is the most inert Fc.
The next assay deals with human FcRn (Homo sapiens, UniProt P55899). Briefly: SPR binding to human FcRn. Conditions: strong at pH6, weak binding with fast dissociation at pH 7.4.
human FcRn, sequence (P55899 24-297 limits assumed): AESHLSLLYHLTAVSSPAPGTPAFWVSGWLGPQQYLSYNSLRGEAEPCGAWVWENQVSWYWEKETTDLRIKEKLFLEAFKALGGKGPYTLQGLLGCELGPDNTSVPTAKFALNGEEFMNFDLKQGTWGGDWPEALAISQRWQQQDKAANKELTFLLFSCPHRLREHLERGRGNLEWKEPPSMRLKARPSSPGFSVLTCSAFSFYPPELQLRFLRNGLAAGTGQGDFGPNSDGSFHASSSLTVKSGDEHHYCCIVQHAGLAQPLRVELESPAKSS
human FcRn, sequence (P61769 21-119 partner): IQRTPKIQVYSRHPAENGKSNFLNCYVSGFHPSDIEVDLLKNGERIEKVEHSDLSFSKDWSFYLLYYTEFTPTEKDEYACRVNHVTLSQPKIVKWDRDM
Another assay deals with cyno FcγRs. Briefly: SPR binding of constructs to cyno FcγRs. The note with it: read-out: binding affinity to cyno FcγRs.
In assay [1] the target is T1, endogenous CD73 activity in Calu-6 cells (Homo sapiens, UniProt P21589).
T1 construct: Calu6 (CD73 endogenous expressors; human pulmonary adenocarcinoma cell line); endogenous in cells; host or cells: Calu6 (Calu-6) human pulmonary adenocarcinoma cells
T1 sequence (P21589 27-549): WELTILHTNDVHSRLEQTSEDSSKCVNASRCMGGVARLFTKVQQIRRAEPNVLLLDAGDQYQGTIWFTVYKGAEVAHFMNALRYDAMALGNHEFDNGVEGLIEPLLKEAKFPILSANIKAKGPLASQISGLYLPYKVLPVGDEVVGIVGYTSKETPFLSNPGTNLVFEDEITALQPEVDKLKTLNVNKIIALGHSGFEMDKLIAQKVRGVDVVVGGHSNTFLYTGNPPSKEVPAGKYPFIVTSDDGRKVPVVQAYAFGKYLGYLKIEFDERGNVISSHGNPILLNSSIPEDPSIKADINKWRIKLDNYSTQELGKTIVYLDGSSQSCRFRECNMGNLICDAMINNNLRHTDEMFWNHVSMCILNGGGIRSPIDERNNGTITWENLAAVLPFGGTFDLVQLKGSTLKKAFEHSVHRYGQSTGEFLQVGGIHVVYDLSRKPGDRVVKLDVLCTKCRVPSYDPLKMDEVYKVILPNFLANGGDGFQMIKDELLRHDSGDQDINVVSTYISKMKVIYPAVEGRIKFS
Briefly: Dual cell line HTRF cAMP assay (Calu-6 and HEK293/A2AR cells). In kind it is cell-based.
Description: CD73 antibodies were serial diluted with PBS buffer containing 0.2% BSA, and plated 5 μl/well in 384 well white bottom proxiplate (PerkinElmer, Waltham, Mass.). Calu-6 cells were harvested and resuspend in PBS containing 0.2% BSA, then 5 μl of cells (300 cells/well) were added to the plate. The cells were incubated with antibodies for 10 minutes at 37° C. […] The cells were further incubated with AMP for 30 minutes at 37° C. During this time, HEK293/A2AR cells were harvested and diluted to 0.4 million/ml in PBS containing 0.2% BSA. They were added into the assay plate at 5 μl/well and continued to incubate at 37° C. for 1 hr. HRTF assays were performed using the homogenous time-resolved fluorescence (HTRE) HiRange cAMP detection kit (Cisbio, Bedford, Mass.) by adding 10 cAMP-conjugated d2 and 10 europium conjugated anti-cAMP antibody in lysis buffer according to the manufacturer's instructions. Plates were incubated at room temperature for 60 minutes and Fluorescence Resonance Energy Transfer (FRET) signals (665 and 615 nM) were read using an EnVision plate reader (PerkinElmer, Waltham, Mass.). The FRET signal was calculated as the ratio of signal from the 665 nm (acceptor) and 615 nm (donor) channels and multiplied by 10,000. IC50 and Ymax were measured. […] All calculations were determined as a percentage of inhibition compared to this control, which was set to 100%.

On to “IgG2-C219S-G1.1f: effectorless IgG1/IgG2 hybrid constant region: CH1 and hinge from IgG2 (C219S), CH2 and CH3 of IgG1 (A330S/P331S); SEQ ID NO:169”, for which the Kd at all other FcγRs is less than 5000 nM; on cyno FcγRs it was more than 5000 nM. Further, the “binding to human FcRn” value with human FcRn was “pH-dependent binding”.
Regarding `Nc1ncnc2c1ncn2[C@@H]1O[C@H](COP(=O)(O)CP(=O)(O)O)[C@@H](O)[C@H]1O` [APCP], the IC50 in assay [1] (cAMP assay) turned out to be 1.29 nM. The molecule further showed a Ymax in assay [1] (percentage of inhibition compared to 100 nM 11F11 set to 100%) of 97.
